One data set deals with ZIKV infection. The conditions noted are these: read-out: IC50 against ZIKV infection (reported); cited from earlier work.
Data set [1] concerns ZIKV human strain PAN2016 (2016/Panama). Briefly: Plaque assay, inhibition of ZIKV infection (strain PAN2016). Particulars: for SI (CC50/IC50): CC50 Vero E6 / IC50 ZIKV PAN2016. Here is the method:
(§1) After removal of the unbound compounds by centrifugation (after addition of 3% PEG-6000), ZIKV was incubated with Vero E6 cells in 24-well plates at 37°C for 1 h. The cells were then washed with PBS, overlaid with DMEM containing 1% carboxymethyl cellulose and 2% FBS, and cultured at 37°C for 4–5 days, followed by being stained with 0.5% crystal violet. […] Plaques in each well were calculated, and IC50 of compounds for each compound was calculated using the CalcuSyn computer program.

The nature of data set [2]: Cytotoxicity, Cell Counting Kit-8, Vero E6 cells. The conditions noted are these: African green monkey. The data set is classed as cell-based. Here is the method: (§2) Briefly, compounds at 2-fold serial dilutions were added to the respective cells (2.0×10^4/well) pre-seeded in 96-well plates. The cells were cultured at 37°C in the presence of 5% CO2 for 3 days, […] incubated with CCK8 solution, followed by measurement of absorbance at 450 nm (A450 value), using a microplate reader (Infinite F200PRO, Tecan, Morrisville, NC, USA). CC50 of compounds was calculated using the CalcuSyn program.
On the technique in general: Tetrazolium dyes change colour on reduction, which living cells bring about.

Data set [3] deals with ZIKV mosquito strain MEX 2-81. Briefly: Plaque assay, inhibition of ZIKV infection (strain MEX 2-81). The conditions noted are these: Zika virus, Vero C1008; plaque assay, Vero E6 cells, mosquito strain; read-out: IC50 MEX 2-81. Type of data set: cell-based. Here is the method: as §1
In data set [4] the test system is ZIKV rhesus macaque strain MR 766. Briefly: Plaque assay, inhibition of ZIKV infection (strain MR 766). The data set is classed as cell-based. The conditions noted are these: Zika virus, Vero C1008; plaque assay, Vero E6 cells, rhesus strain; read-out: IC50 MR 766. Here is the method:
as §1

The test system of data set [5] is ZIKV human strain R116265. Briefly: Plaque assay, inhibition of ZIKV infection (strain R116265). Type of data set: cell-based. Particulars: Zika virus, Vero C1008, Vero E6 cells. Here is the method:
as §1

Data set [6] concerns ZIKV human strain PAN2015. Briefly: Plaque assay, inhibition of ZIKV infection (strain PAN2015). Type of data set: cell-based. The conditions noted are these: Zika virus, Vero C1008, Vero E6 cells. Here is the method:
as §1

For another data set, the system named is ZIKV human strain FLR. Briefly: Plaque assay, inhibition of ZIKV infection (strain FLR). The data set is classed as cell-based. The conditions noted are these: Zika virus, Vero C1008; plaque assay, Vero E6 cells, human strain; read-out: IC50 FLR. Here is the method:
as §1

Data set [7] relates to ZIKV human strain R103451. Briefly: Plaque assay, inhibition of ZIKV infection (strain R103451). Type of data set: cell-based. Particulars: Zika virus, Vero C1008; plaque assay, Vero E6 cells, human strain; read-out: IC50 R103451. Here is the method: as §1
Data set [8] relates to ZIKV human strain PRVABC59. Briefly: Plaque assay, inhibition of ZIKV infection (strain PRVABC59). The data set is classed as cell-based. Particulars: Zika virus, Vero C1008; plaque assay, Vero E6 cells, human strain; read-out: IC50 PRVABC59. Here is the method:
as §1

The test system of data set [9] is ZIKV human strain PLCal_ZV. Briefly: Plaque assay, inhibition of ZIKV infection (strain PLCal_ZV). Type of data set: cell-based. The conditions noted are these: Zika virus, Vero C1008; plaque assay, Vero E6 cells, human strain; read-out: IC50 PLCal_ZV. Here is the method:
as §1

The subject of data set [10] is ZIKV human strain IbH 30656. Briefly: Plaque assay, inhibition of ZIKV infection (strain IbH 30656). Particulars: Zika virus, Vero C1008; plaque assay, Vero E6 cells, human strain; read-out: IC50 IbH 30656. Type of data set: cell-based. Here is the method:
as §1

Data set [11] deals with 8 human ZIKV strains (PAN2016, R116265, PAN2015, FLR, R103451, PRVABC59, PLCal_ZV, IbH 30656). Briefly: microbe, parasite or virus in culture. The data set is classed as cell-based. The conditions noted are these: Zika virus, read-out: Average IC50 (human strains). Here is the method: as §1
The test system of another data set is Vero E6 cells. Briefly: Cytotoxicity, Cell Counting Kit-8, Vero E6 cells. Type of data set: cell-based. The conditions noted are these: African green monkey, 3 days. Here is the method: as §2
Where [12] appears, read: Zika virus, Vero C1008, in Homo sapiens, read-out: IC50 against infection of ZIKV PAN2016, plaque assay, Vero E6 cells.
[13] abbreviates: read-out: IC50 against infection of ZIKV PAN2016, plaque assay, Vero E6 cells.

Read-outs that look alike come from different tables or passages of the source.

Take `CC(=O)Oc1ccccc1C(=O)Nc1ncc([N+](=O)[O-])s1` [Nitazoxanide]: in the data set with ZIKV infection, the IC50 is 15.9 µM.

Turning to `Cc1cc2c(c(O)c1-c1c(C)cc3c(c1O)/C(=C/NCCO)C(=O)C(O)=C3C(C)C)/C(=C/NCCO)C(=O)C(O)=C2C(C)C` [ST004331], the “SI (CC50/IC50)” value in data set [1] is 1.20. Further, the IC50 in [1] (setting [12]) was determined as 35.02 ± 0.35 µM. Further, half-maximal cytotoxicity in data set [2] (CC50 Vero E6) (CC50 at 3 days) was put at 42.3 ± 1.17 µM.

Take `Cc1cc2c(c(O)c1-c1c(C)cc3c(c1O)C(C=C1C(=O)NC(=O)NC1=O)C(=O)C(O)=C3C(C)C)C(C=C1C(=O)NC(=O)NC1=O)C(=O)C(O)=C2C(C)C` (centres unmarked) [ST004335]: the “SI (CC50/IC50)” value in data set [1] is reported as 2.7. Also, the IC50 in data set [1] (setting [12]) came out at 27.4 ± 2.5 µM. The CC50 at 3 days in data set [2] (Vero E6 cells, CCK8, 3 days, read-out: CC50 Vero E6) stood at 73.9 ± 1.68 µM.

Regarding `Cc1cc2c(c(O)c1-c1c(C)cc3c(c1O)/C(=C/NCc1cccnc1)C(=O)C(O)=C3C(C)C)/C(=C/NCc1cccnc1)C(=O)C(O)=C2C(C)C` [ST005135], the “SI (CC50/IC50)” value in data set [1] was 2.97. Also, in data set [1] (setting [12]), the IC50 stood at 35 ± 2.86 µM. The same molecule registered a CC50 at 3 days in data set [2] (CC50 Vero E6) of 104 ± 2.2 µM.

Regarding `Cc1cc2c(C(C)C)c(O)c(O)c3c2c(c1-c1c(C)cc2c(C(C)C)c(O)c(O)c4c2c1OC4N)OC3N` (centres unmarked) [ST069299], the IC50 in data set [1] (setting [12]) was 2.3 µM; in data set [1] (setting [13]), 2.34 ± 0.06 µM; in data set [3] it was 3.9 µM; in data set [4], 4.9 µM; in [5] it was 2.6 µM; in [6] it was 2.3 µM. Further, the IC50 in the data set with ZIKV human strain FLR is 3.3 µM; in data set [7] it was 3.9 µM; in data set [8], 3.3 µM; in data set [9], 4 µM; in data set [10], 2.5 µM; in data set [11], 3 µM. Also, the CC50 at 3 days in [2] (CC50 Vero E6) is 25.9 µM. The molecule further had a CC50 in the data set on Vero E6 cells of 25.9 ± 2.7 µM.

In the case of `Cc1cc2c(C(C)C)c(O)c(O)c(/C=N/NC(=O)C(C)C)c2c(O)c1-c1c(C)cc2c(C(C)C)c(O)c(O)c(/C=N/NC(=O)C(C)C)c2c1O` [ST086273], the “SI (CC50/IC50)” value in data set [1] was found to be 10.23. Besides, the IC50 in data set [1] (setting [12]) was 4.8 µM; in data set [1] (setting [13]) it was 4.93 ± 0.7 µM; in [3], 2.8 µM; in data set [4] it was 5.5 µM; in data set [5], 7.9 µM; in [6] it was 5 µM. Moreover, the IC50 with ZIKV human strain FLR worked out at 4.2 µM; in [7], 7 µM; in data set [8], 4 µM; in data set [9], 5.9 µM; in [10] it was 5.4 µM; in data set [11], 5.5 µM. In data set [2] (CC50 Vero E6), this molecule gave a CC50 at 3 days of 50.5 µM. In the data set on Vero E6 cells, this molecule registered a 50% cytotoxic concentration (CC50) of 50.5 ± 3.36 µM.

Take `Cc1cc2nc[nH]c2c(/N=C/c2c(O)c(O)c(C(C)C)c3cc(C)c(-c4c(C)cc5c(C(C)C)c(O)c(O)c(/C=N/c6c(C)c(C)cc7nc[nH]c67)c5c4O)c(O)c23)c1C` [ST092971]: the “SI (CC50/IC50)” value in data set [1] is recorded as 14.48. Besides, the IC50 came out at 5 µM in data set [1] (setting [12]); 4.98 ± 0.01 µM in [1] (setting [13]); 13.5 µM in [3]; 5.2 µM in [4]; 8 µM in [5]; 5 µM in [6]. For the same molecule, the IC50 in the data set on ZIKV human strain FLR was 6.9 µM; in data set [7], 6.6 µM; in data set [8], 9.1 µM; in [9], 6.7 µM; in [10], 5.2 µM; in data set [11], 6.6 µM. Further, it took 72.1 µM to reach half-maximal cytotoxicity in [2] (CC50 Vero E6) (CC50 at 3 days). In the data set with Vero E6 cells, half-maximal cytotoxicity (CC50) was put at 72.1 ± 1.91 µM.

With `CC(C)OC(=O)[C@H](C)N[P@](=O)(OC[C@H]1O[C@@H](n2ccc(=O)[nH]c2=O)[C@](C)(F)[C@@H]1O)Oc1ccccc1` [Sofosbuvir], the IC50 in the data set on ZIKV infection is 9.6 µM.

As for `Oc1cccc(-c2c3nc(c(-c4cccc(O)c4)c4ccc([nH]4)c(-c4cccc(O)c4)c4nc(c(-c5cccc(O)c5)c5ccc2[nH]5)CC4)C=C3)c1` [Temoporfin], the IC50 in the data set with ZIKV infection was 1.1 µM.

The term IC50 denotes the point on the concentration scale where inhibition reaches its midpoint. The term CC50 denotes the concentration at which the toxic effect on the cells reaches its halfway point.

Values taken from PMC9202104 (BMC Biology, 2022).
